Values joined by “and” are separate entries in the source; they are usually repeats but may differ in a detail not shown here. Equal entries are not always repeated. Structures can show the parent of a compound that is named as a salt. Where two headings read alike, the source gives them in different places.
What was measured:
primary rat microglia [1] = assay: Cell toxicity (dead cells, size <150 μm2) in LPS assay
[2] = test system: LPS-induced microglia activation; assay: Image-based assay of LPS-induced microglia activation (HTS and dose response); type: cell-based, rat; conditions: for IC50 / inhibition at 10 µM: Rattus norvegicus, Microglia; for inhibition at 10 µM: read-out: LPS % inhibition
[3] = test system: fibrin- and LPS-induced microglia activation; assay: cells; type: cell-based, rat; conditions: for inhibition at 10 µM: Rattus norvegicus, Microglia
[4] = test system: fibrin-induced microglia activation; assay: Image-based assay of fibrin-induced microglia activation (HTS and dose response); type: cell-based, rat; conditions: for IC50 / inhibition at 10 µM: Rattus norvegicus, Microglia; for inhibition at 10 µM: read-out: Fibrin % inhibition
primary rat microglia [5] = assay: Cell toxicity (dead cells, size <150 μm2) in coated fibrin (cFib) assay;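 also: share of dead cells sized under 150 µm2 at 10 µM in fibrin-stimulated microglia HTS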
primary rat microglia [6] = test system: primary rat microglia
[7] = primary HTS, 10 μM, LPS assay, dead cells size <150 μm2
[8] = primary microglia HTS, fibrin stimulation, toxicity = cell size <150 μm2
[9] = primary microglia HTS, LPS stimulation, toxicity = cell size <150 μm2
[10] = quadrant by fibrin and LPS inhibition in HTS of 1907 compounds
[11] = primary microglia HTS, LPS stimulation, activation = cell size >800 μm2
[12] = primary microglia HTS, fibrin stimulation, activation = cell size >800 μm2
[13] = primary microglia HTS, fibrin stimulation, decreased size (<150 μm^2) as marker of toxicity
[14] = primary microglia HTS, LPS stimulation, decreased size (<150 μm^2) as marker of toxicity
[15] = HTS of 1907 compounds, quadrant by fibrin and LPS inhibition
[16] = primary microglia HTS, fibrin assay, dead cells (size <150 μm2)
[17] = primary microglia HTS, LPS stimulation, compounds at 10 μM
[18] = quadrant by fibrin and LPS inhibition, HTS at 10 μM
[19] = primary microglia HTS, fibrin stimulation, compounds at 10 μM
[20] = primary microglia HTS, 10 μM, LPS assay, cell size <150 μm^2 as marker of toxicity
[21] = primary microglia HTS, 10 μM, LPS-stimulated, cell size >800 μm^2 as marker of activation
[22] = primary microglia HTS, 10 μM, fibrin-stimulated, cell size >800 μm^2 as marker of activation
[23] = primary microglia HTS, fibrin assay, dead cells (size <150 μm2), compounds at 10 μM
[24] = classification by fibrin and LPS inhibition, HTS at 10 μM

CN(C)[C@@H]1C(=O)C(C(N)=O)=C(O)[C@@]2(O)C(=O)C3=C(O)c4c(O)ccc(Cl)c4[C@@](C)(O)[C@H]3C[C@@H]12
LPS % cell toxicity (primary rat microglia [1]; [7]): 0%
LPS % inhibition ([2]; primary HTS, 10 μM, LPS-stimulated primary microglia): 23%
Quadrant (FIG. 5b) ([3]; primary HTS, 10 μM): Q4
Fibrin % inhibition ([4]; primary HTS, 10 μM, fibrin-stimulated primary microglia): 27%

CN(C)CC/C=C1/c2ccccc2Sc2ccc(Cl)cc21 [Chlorprothixene]
Fibrin % cell toxicity (primary rat microglia [5]; primary HTS, 10 μM, fibrin assay, dead cells size <150 μm2): 1%
LPS % cell toxicity (primary rat microglia [1]; [7]): 1% and 0%
Quadrant (FIG. 5b) ([3]; primary HTS, 10 μM): Q4

Oc1ccc(C2CNCCc3c2cc(O)c(O)c3Cl)cc1 (stereo not drawn) [Fenoldopam]
Fibrin % cell toxicity (primary rat microglia [5]; [8]): 1% and 0%
LPS % cell toxicity (primary rat microglia [1]; [9]): 0%
Quadrant (FIG. 5b) [3, 10]: Q4

CC(C)(C)NC(=O)[C@H]1CC[C@H]2[C@@H]3CC[C@H]4NC(=O)C=C[C@]4(C)[C@H]3CC[C@]12C [Finasteride]
Fibrin % cell toxicity (primary rat microglia [5]; [8]): 1% and 0%
LPS % cell toxicity (primary rat microglia [1]; [9]): 1% and 0%
Quadrant (FIG. 5b) [3, 10]: Q4

Br.COc1ccc2c3c1O[C@H]1C[C@@H](O)C=C[C@@]31CCN(C)C2 [Galanthamine Hydrobromide, Galantamine]
LPS % cell toxicity (primary rat microglia [1]; [9]): 0%
LPS % inhibition [2, 11]: 9%
Quadrant (FIG. 5b) [3, 10]: Q4
Fibrin % inhibition [4, 12]: 10%

N=C(N)NC(=O)Cc1c(Cl)cccc1Cl [Guanfacine]
Fibrin % cell toxicity (primary rat microglia [5]; [8]): 1%
LPS % cell toxicity (primary rat microglia [1]; [9]): 0%
Quadrant (FIG. 5b) [3, 10]: Q4

CC(=O)[C@@]1(O)CC[C@H]2[C@@H]3CCC4=CC(=O)CC[C@]4(C)[C@H]3CC[C@@]21C [Hydroxyprogesterone]
LPS % cell toxicity (primary rat microglia [1]; [9]): 1%
LPS % inhibition [2, 11]: 33%
Quadrant (FIG. 5b) [3, 10]: Q4
Fibrin % inhibition [4, 12]: 9%

OCCOCCN1CCN(C(c2ccccc2)c2ccc(Cl)cc2)CC1 (stereo not drawn) [Hydroxyzine]
Fibrin % cell toxicity (primary rat microglia [5]; [8]): 0% and 1%
LPS % cell toxicity (primary rat microglia [1]; [9]): 0%
Quadrant (FIG. 5b) [3, 10]: Q4

CCCCCN(C)CCC(O)(P(=O)(O)O)P(=O)(O)O [Ibandronate]
Fibrin % cell toxicity (primary rat microglia [5]; [8]): 0% and 1%
LPS % cell toxicity (primary rat microglia [1]; [9]): 0%
Quadrant (FIG. 5b) [3, 10]: Q4

O=[N+]([O-])O[C@H]1CO[C@H]2[C@@H]1OC[C@H]2O[N+](=O)[O-] [Isosorbide Dinitrate]
Fibrin % cell toxicity (primary rat microglia [5]; [8]): 0%
LPS % cell toxicity (primary rat microglia [1]; [9]): 0%

Nc1ccn([C@@H]2CS[C@H](CO)O2)c(=O)n1 [Lamivudine]
Fibrin % cell toxicity (primary rat microglia [5]; [8]): 1%
LPS % cell toxicity (primary rat microglia [1]; [9]): 0%
Quadrant (FIG. 5b) [3, 10]: Q4

CC(Oc1c(Cl)cccc1Cl)C1=NCCN1 (stereo not drawn) [Lofexidine]
Fibrin % cell toxicity (primary rat microglia [5]; [8]): 0% and 1%
LPS % cell toxicity (primary rat microglia [1]; [9]): 0%
Quadrant (FIG. 5b) [3, 10]: Q4

CNC[C@H](O)[C@@H](O)[C@H](O)[C@H](O)CO [Meglumine]
Fibrin % cell toxicity (primary rat microglia [5]; [13]): 0% and 1%
LPS % cell toxicity (primary rat microglia [1]; [14]): 0% and 1%
Quadrant (FIG. 5b) [3, 10]: Q4

C[C@@H](O)[C@H]1C(=O)N2C(C(=O)O)=C(S[C@@H]3CN[C@H](C(=O)N(C)C)C3)[C@H](C)[C@H]12 [Meropenem]
Fibrin % cell toxicity (primary rat microglia [5]; [13]): 1%
LPS % cell toxicity (primary rat microglia [1]; [14]): 0%
Quadrant (FIG. 5b) [3, 10]: Q4

C[C@H](N)[C@H](O)c1cccc(O)c1 [Metaraminol]
Fibrin % cell toxicity (primary rat microglia [5]; [13]): 0% and 1%
LPS % cell toxicity (primary rat microglia [1]; [14]): 1%
Quadrant (FIG. 5b) [3, 10]: Q4

C[N+]1(C)[C@@H]2C[C@@H](OC(=O)[C@H](CO)c3ccccc3)C[C@H]1[C@@H]1O[C@@H]12 [Methscopolamine Bromide]
Fibrin % cell toxicity (primary rat microglia [5]; [13]): 1%
LPS % cell toxicity (primary rat microglia [1]; [14]): 0%
Quadrant (FIG. 5b) [3, 10]: Q4

CC[C@@H](CO)NC(=O)[C@@H]1C=C2c3cccc4c3c(cn4C)C[C@H]2N(C)C1 [Methysergide Maleate]
Fibrin % cell toxicity (primary rat microglia [5]; [13]): 0% and 1%
LPS % cell toxicity (primary rat microglia [1]; [14]): 0%
Quadrant (FIG. 5b) [3, 10]: Q4

CCN(CC)C(=O)C1(c2ccccc2)CC1CN (stereo not drawn) [Milnacipran hydrochloride, reference compound]
LPS % cell toxicity (primary rat microglia [1]; [14]): 1%
IC50 ([2]; 48 h, Table 1, dose response 0.001-20 μM, triplicates, primary rat microglia, 48 h, read-out: LPS IC50): 20 µM
inhibition at 10 µM ([2]; 48 h, primary microglia HTS, LPS stimulation, increased cell size (>800 μm^2) as marker of activation): 31%
IC50 ([2]; LPS-induced microglia activation, dose response, read-out: LPS IC50 (uM) (Suppl. Table 7)): 20 µM
IC50 ([2]; Table 3, read-out: LPS IC50 (uM) (Suppl. Table 7)): 20 µM
IC50 ([2]; dose response, LPS-induced microglia activation, read-out: LPS IC50): 20 µM
Quadrant (FIG. 5b) [3, 15]: Q3
inhibition at 10 µM ([3]; Table 3, read-out: Cherry-picked Hit (Suppl. Table 7)): > 50%
inhibition at 10 µM ([3]; HTS hit classification, read-out: Hit): > 50%
Quadrant (FIG. 5b) ([3]; Table 1, screen at 10 μM): Q3
Quadrant (FIG. 5b) ([3]; Table 3, screen at 10 μM): Q3
Quadrant (FIG. 5b) [3, 10]: Q3
IC50 ([4]; 48 h, Table 1, dose response 0.001-20 μM, triplicates, primary rat microglia, 48 h, read-out: Fibrin IC50): 8 µM
IC50 ([4]; Table 3, read-out: Fibrin IC50 (uM) (Suppl. Table 7)): 8 µM
IC50 ([4]; dose response, fibrin-induced microglia activation, read-out: Fibrin IC50): 8 µM
IC50 ([4]; fibrin-induced microglia activation, dose response, read-out: Fibrin IC50 (uM) (Suppl. Table 7)): 8 µM
inhibition at 10 µM ([4]; primary microglia HTS, fibrin stimulation, increased cell size (>800 μm^2) as marker of activation): 72%

CC(C)[C@H]1CC[C@H](C(=O)N[C@H](Cc2ccccc2)C(=O)O)CC1 [Nateglinide]
Fibrin % cell toxicity (primary rat microglia [5]; [13]): 1%
LPS % cell toxicity (primary rat microglia [1]; [14]): 1% and 0%
Quadrant (FIG. 5b) [3, 10]: Q4

CN1Cc2c(N)cccc2C(c2ccccc2)C1 (stereo not drawn) [Nomifensine]
Fibrin % cell toxicity (primary rat microglia [5]; [13]): 0%
LPS % cell toxicity (primary rat microglia [1]; [14]): 0%
Quadrant (FIG. 5b) [3, 10]: Q4

C=C(NC(=O)C(=C)NC(=O)c1csc(C2=N[C@@H]3c4csc(n4)[C@H]4NC(=O)c5csc(n5)[C@H]([C@](C)(O)[C@@H](C)O)NC(=O)[C@H]5CSC(=N5)/C(=C/C)NC(=O)[C@H]([C@@H](C)O)NC(=O)c5csc(n5)[C@]3(CC2)NC(=O)[C@H](C)NC(=O)C(=C)NC(=O)[C@H](C)NC(=O)[C@H]([C@@H](C)CC)N[C@@H]2C=Cc3c([C@H](C)O)cc(nc3[C@H]2O)C(=O)O[C@@H]4C)n1)C(N)=O [Thiostrepton]
Fibrin % cell toxicity (primary rat microglia [5]; [16]): 64%
inhibition at 10 µM [2, 17]: 65%
LPS % cell toxicity (primary rat microglia [6]; rat): 1%
Quadrant (FIG. 5b) [3, 18]: Q2
inhibition at 10 µM [4, 19]: 109%

CCNC1(c2cccs2)CCCCC1=O.Cl (stereo not drawn) [Tiletamine Hydrochloride]
LPS % cell toxicity (primary rat microglia [1]; [20]): 0%
LPS % inhibition [2, 21]: 22%
Quadrant (FIG. 5b) [3, 15]: Q4
Fibrin % inhibition [4, 22]: 8%

COc1cccc(C2(O)CCCCC2CN(C)C)c1 (stereo not drawn) [Tramadol Hydrochloride]
Fibrin % cell toxicity (primary rat microglia [5]; primary microglia HTS, 10 μM, fibrin assay, cell size <150 μm^2 as marker of toxicity): 0%
LPS % cell toxicity (primary rat microglia [1]; [20]): 0%

CC1(C)O[C@@H]2C[C@H]3[C@@H]4CCC5=CC(=O)C=C[C@]5(C)[C@@]4(F)[C@@H](O)C[C@]3(C)[C@]2(C(=O)CO)O1 [Triamcinolone Acetonide]
Fibrin % cell toxicity (primary rat microglia [5]; [16]): 4%
inhibition at 10 µM [2, 17]: 104%
LPS % cell toxicity (primary rat microglia [6]; rat): 4%
Quadrant (FIG. 5b) [3, 18]: Q2
inhibition at 10 µM [4, 19]: 111%

CC[C@H]1OC(=O)C[C@@H](O)[C@H](C)[C@@H](O[C@@H]2O[C@H](C)[C@@H](O[C@H]3C[C@@](C)(O)[C@@H](O)[C@H](C)O3)[C@H](N(C)C)[C@H]2O)[C@@H](CC=O)C[C@@H](C)C(=O)/C=C/C(C)=C/[C@@H]1CO[C@@H]1O[C@H](C)[C@@H](O)[C@@H](OC)[C@H]1OC.O=C(O)C(O)C(O)C(=O)O [Tylosin Tartrate]
LPS % cell toxicity (primary rat microglia [1]; [20]): 0%
LPS % inhibition [2, 21]: 11%
Quadrant (FIG. 5b) [3, 15]: Q4
Fibrin % inhibition [4, 22]: 9%

Acetophenazine Maleate
Fibrin % cell toxicity (primary rat microglia [5]; [16]): 1%
LPS % inhibition [2, 17]: 15%
LPS % cell toxicity (primary rat microglia [6]): 0%
Quadrant (FIG. 5b) [3, 18]: Q4
Fibrin % inhibition [4, 19]: 34%

Apramycin Sulfate
Fibrin % cell toxicity (primary rat microglia [5]; [16]): 1%
LPS % inhibition [2, 17]: 25%
LPS % cell toxicity (primary rat microglia [6]): 1%
Quadrant (FIG. 5b) [3, 18]: Q4
Fibrin % inhibition [4, 19]: 11%

Arsenic Trioxide
Fibrin % cell toxicity (primary rat microglia [5]; [16]): 1%
LPS % inhibition [2, 17]: 14%
LPS % cell toxicity (primary rat microglia [6]): 0%
Quadrant (FIG. 5b) [3, 18]: Q4
Fibrin % inhibition [4, 19]: 14%

Cyanocobalamin
Fibrin % cell toxicity (primary rat microglia [5]; [23]): 1%
LPS % inhibition [2, 17]: 11%
LPS % cell toxicity (primary rat microglia [6]): 0%
Quadrant (FIG. 5b) [3, 24]: Q4
Fibrin % inhibition [4, 19]: −1%

Eprinomectin
Fibrin % cell toxicity (primary rat microglia [5]; [23]): 1%
LPS % inhibition [2, 17]: 8%
LPS % cell toxicity (primary rat microglia [6]): 1%
Quadrant (FIG. 5b) [3, 24]: Q4
Fibrin % inhibition [4, 19]: −3%

Pizotyline Malate
Fibrin % cell toxicity (primary rat microglia [5]; primary microglia HTS, fibrin stimulation, cell size <150 μm2 as marker of toxicity): 1%
LPS % inhibition [2]: 37%
LPS % cell toxicity (primary rat microglia [6]): 1%
Quadrant (FIG. 5b) ([3]; classification by fibrin and LPS inhibition in HTS): Q4
Fibrin % inhibition ([4]; primary microglia HTS, fibrin stimulation, cell size >800 μm2 as marker of activation): 8%

Reference: patent publication US20210330611A1, “THERAPY FOR NEUROLOGICAL DISEASES/DISORDERS” (priority 2020, published 2021)
